Data reported in US11919886B2, “4,9-dioxo-4,9-dihydronaphtho[2,3-B]furan-3-carboxamide derivatives and uses thereof for treating proliferative diseases and infectious diseases” (Academia Sinica, priority 2016, dated 2024).
≈ marks a conversion by molar mass, not a printed value. Where two headings read alike, the source gives them in different places.

Key:
[1] = system: H1975 cells; assay: BrdU incorporation (DNA replication) by flow cytometry; format: cell-based, human; details: H1975, treated 12, 24 or 48 h
Experimental: Panel (A): A chart showing DNA replication in Compound 1-treated H1975 cells was inhibited. DNA histograms (BrdU incorporation vs. DNA content) of DMSO or compound 1-treated H1975 cells are shown at 12 to 48 hours. The H1975 cells were BrdU-pulsed (BD Pharmingen™ BrdU Flow Kit Staining) and analyzed by flow cytometry. Panel (B): A chart showing compound 1 decreased the replication fork number. The replication forks were analyzed by immunofluorescence staining with anti-MCM2 antibodies (see row labeled “MCM2” and “Merge with DAPI”) and DAPI (see row labeled “Merge with DAPI”). The quantification was made by counting signals obtained with the anti-MCM2 antibody using Image J software. (n=5 cells per group; original magnification, ×1000). Panel (C): A chart showing compound 1-treated H1975 cells have a prolonged S phase. A double thymidine block was performed, and the data were collected at the indicated time points.
To evaluate the effects on DNA replication of Compound 1, the levels of BrdU (5′-bromo′-2′-deoxyuridine) incorporation were examined. Exemplary results are shown in Panel (A) of FIG. 2. […] The content of BrdU was assessed using fluorescent antibodies. […] The samples were analyzed in a FACS caliber flow cytometer (Becton Dickinson, Sweden) for dot plot histogram analysis (BrdU incorporation vs. DNA content).

[2] = system: MCM complex (MCM2-MCM7); assay: Immunoblotting of MCM complex protein expression in H1975 cell lysates; format: cell-based, human
Experimental: To evaluate the effects of Compound 1 on modulating the expression of different MCM protein components, immunoblotting of DMSO or compound 1-treated (at 140 nM) H1975 cell lysates was performed. Exemplary results are shown in Panels (A)-(C) of FIG. 3. H1975 cell were treated with DMSO and compound 1 (140 nM). Compound 1-treated H1975 cells were harvested at 24 hours, 48 hours, and 72 hours, and the protein expression levels of MCM complex were analyzed by immunoblotting. […] (Panel (A) of FIG. 3.).
To evaluate the effects of Compound 1 on triggering MCM2, MCM6, and MCM7 degradation through transcriptional or post-translational regulation, compound 1-treated H1975 cells were harvested at 48 hours with or without 10 μM MG132 treatment for 12 hours; and the protein expression levels of MCM2/6/7 were examined by immunoblotting. […] It was observed that MG132 proteasome inhibitor may reverse the compound 1 effects on MCM2/6/7 protein expression levels.

[3] = system: Staphylococcus epidermidis; assay: MIC, broth micro dilution method; format: cell-based
[4] = system: Staphylococcus haemolyticus; assay: MIC, broth micro dilution method; format: cell-based
[5] = system: Streptococcus gallolyticus subsp. pasteurianus; assay: MIC, broth micro dilution method; format: cell-based; details: strain ATCC43144, S. bovis
[6] = system: Enterococcus faecalis; assay: MIC, broth micro dilution method; format: cell-based
[7] = system: Pseudomonas aeruginosa; assay: MIC, broth micro dilution method; format: cell-based
[8] = system: Shigella sonnei; assay: MIC, broth micro dilution method; format: cell-based
[9] = system: Klebsiella pneumoniae; assay: MIC, broth micro dilution method; format: cell-based
[10] = system: Breast Cancer Cells (MCF); assay: Cell viability by Cell-TiterGlo; format: cell-based; details: Homo sapiens, 48 h, two days, read-out: % of the activities in the presence of ~10 μM compound, Breast Cancer Cells (MCF)
Experimental: (§1) Compound 1 and its analogues shown in Table 6 below were tested for their activities on cancer cells and bacterial cells using assays described herein. H1975, MDA-MB231, and MCF7 cells were incubated in the presence of the compounds in cell growth medium containing 10% fetal bovine serum for two days in a mammalian cell culture incubatoe. Cell viability were monitored by using Cell-TiterGlo. Staphylococcus aureus and Escherichia coli were incubated in the presence of the compounds in Muller-Hinton broth for 16-24 hours in a 37° C. incubator. Bacterial growth was monitored by using Alamar Blue (Invitrogen).

[11] = system: Breast Cancer Cells (MDA-MB231); assay: Cell viability by Cell-TiterGlo; format: cell-based; details: Homo sapiens, MDA-MB-231, 48 h, two days, read-out: % of the activities in the presence of ~10 μM compound, Breast Cancer Cells (MDA-MB231)
Experimental: as §1

[12] = system: Lung Cancer Cells (H1975); assay: Cell viability by Cell-TiterGlo; format: cell-based; details: Homo sapiens, NCI-H1975, 48 h, two days, read-out: % of the activities in the presence of ~10 μM compound, Lung Cancer Cells (H1975)
Experimental: as §1

[13] = system: PC9 (human lung adenocarcinoma cells, EGFR del 19 mutation and sensitive to gefitinib); assay: SRB cytotoxicity assay, PC9; details: 72 h
[14] = system: HS68 (human foreskin fibroblast cells, used as normal cells); assay: SRB cytotoxicity assay, HS68 normal cells; details: Hs68, 72 h
[15] = system: H1975 cell line; assay: Sulforhodamine B colorimetric (SRB) assay, H1975; details: Homo sapiens, NCI-H1975, 72 h

SMILES: Cc1oc2c(c1C(=O)NCCCn1ccnc1)C(=O)c1ccccc1C2=O [Compound 1, N-(3-(1H-Imidazol-1-yl)propyl)-2-methyl-4,9-dioxo-4,9-dihydronaphtho [2,3-b]furan-3-carboxamide]
- percentages of BrdU-positive cells vs DMSO control [1]: lower than those in the DMSO control group
- expression of MCM3, MCM4, or MCM5 ([2]; H1975, 140 nM, 24, 48, 72 hours): lower only at 72 hours
- expression levels of MCM2, MCM6, and MCM7 ([2]; H1975, 140 nM, 24 hour and 72 hour): significantly decreased
- MCM protein levels and messenger RNA levels ([2]; H1975, 24 hours): substantial decrease in MCM protein levels without a change in their messenger RNA levels
- MIC ([3]; read-out: MIC (μg/ml) 100%, strain ATCC12228, methicillin-susceptible): 2 µg/mL (≈ 5.5 µM)
- MIC ([3]; read-out: MIC (μg/ml) 100%, strain ATCC35984, methicillin-resistant): 1 µg/mL (≈ 2.75 µM)
- MIC ([3]; strain ATCC12228, methicillin-susceptible, read-out: MIC (μg/ml) 50%): 0.5 µg/mL (≈ 1.38 µM)
- MIC ([3]; strain ATCC35984, methicillin-resistant, read-out: MIC (μg/ml) 50%): 0.25 µg/mL (≈ 0.688 µM)
- MIC ([4]; read-out: MIC (μg/ml) 100%, strain ATCC29970, methicillin-susceptible): 4 µg/mL (≈ 11 µM)
- MIC ([4]; strain ATCC29970, methicillin-susceptible, read-out: MIC (μg/ml) 50%): 2 µg/mL (≈ 5.5 µM)
- MIC ([5]; read-out: MIC (μg/ml) 100%): 4 µg/mL (≈ 11 µM)
- MIC ([5]; read-out: MIC (μg/ml) 50%): 2 µg/mL (≈ 5.5 µM)
- MIC ([6]; read-out: MIC (μg/ml) 100%, strain ATCC19433): 32 µg/mL (≈ 88.1 µM)
- MIC ([6]; strain ATCC19433, read-out: MIC (μg/ml) 50%): 16 µg/mL (≈ 44 µM)
- MIC ([7]; read-out: MIC (μg/ml) 100%, strain ATCC27853, gram negative): > 32 µg/mL
- MIC ([7]; strain ATCC27853, gram negative, read-out: MIC (μg/ml) 50%): > 32 µg/mL
- MIC ([8]; read-out: MIC (μg/ml) 100%, strain ATCC9290, gram negative): > 32 µg/mL
- MIC ([8]; strain ATCC9290, gram negative, read-out: MIC (μg/ml) 50%): > 32 µg/mL
- MIC ([9]; read-out: MIC (μg/ml) 100%, strain ATCC700603, gram negative): > 32 µg/mL
- MIC ([9]; strain ATCC700603, gram negative, read-out: MIC (μg/ml) 50%): > 32 µg/mL
- viability at 10 µM [10]: 6%
- viability at 10 µM [11]: 13.7%
- viability at 10 µM [12]: 4.2%
- IC50 [13]: 37 nM
- IC50 [14]: > 1000 nM
- IC50 ([15]; H1975, 72 h): 77 nM
- IC50 ([15]; H1975 cell line, SRB assay, 72 hours): 77 to 247 nM
